Reference: patent publication US20060142247A1, “Tricyclic heterocycles” (priority 2004, published 2006)

Test system: HCT 116 cells
Test: Viability assay HCT 116 cells (CellTiter-Glo)
Assay type: cell-based
Conditions: Homo sapiens, HCT-116, 120 h, HCT 116 human colon carcinoma cells, 5 days incubation, CellTiter-Glo luminescence
Procedure: Viability Assay—HCT 116 Cells
A viability assay was performed using the CellTiter-Glo® Luminescent Cell Viability Assay (see Promega Corporation's Technical Bulletin No. 288, pp. 1-11 [revised 2/04] which is hereby incorporated by reference in its entirety). This assay is a homogeneous method of determining the number of viable cells in culture based on quantitation of the ATP present, an indicator of metabolically active cells. The assay is designed for use with multiwell formats, making it ideal for automated high-throughput screening (HTS), cell proliferation and cytotoxicity assays. The homogeneous assay procedure involves adding a single reagent (containing luciferase, luciferan substrate, and buffer) directly to cells cultured in serum-supplemented medium. Cell washing, removal of medium and multiple pipetting steps are not required. The system detects as few as 15 cells/well in a 384-well format in 10 minutes after adding reagent and mixing.
The homogeneous “add-mix-measure” format results in cell lysis and generation of a luminescent signal proportional to the amount of ATP present. The amount of ATP is directly proportional to the number of cells present in culture. The above-referenced assay generates a “glow-type” luminescent signal, produced by the luciferase reaction, which has a half-life generally greater than five hours, depending on cell type and medium used. The extended half-life eliminates the need to use reagent injectors and provides flexibility for continuous or batch mode processing of multiple plates. The unique homogeneous format avoids errors that may be introduced by other ATP measurement methods that require multiple steps.
HCT 116 cells (human colon carcinoma, ATCC-No. CCl-247) were cultivated in RPMI 1640 medium with GlutaMAX™ I (cell culture media that contains L-Alanyl-L-Glutamine [a stabilized a form/source of L-Glutamine] from Invitrogen, Cat-No. 61870-010), 2.5% Fetal Calf Serum (FCS, Sigma Cat-No. F4135 (FBS)); 100 Units/ml penicillin/100 μg/ml streptomycin (=Pen/Strep from Invitrogen Cat. No. 15140). For the assay the cells were seeded in 384 well plates, 1000 cells per well, in the same medium. The next day the test compounds were added in various concentrations ranging from 30 μM to 0.0015 μM (10 concentrations, 1:3 diluted). After 5 days the viability assay was done according to the instructions of the manufacturer. In brief: the cell-plate was equilibrated to room temperature for approximately 30 minutes and than the reagent (containing luciferase, luciferan substrate, and buffer) was added. The contents were carefully mixed for 15 minutes to induce cell lysis. After 45 minutes the luminescent signal was measured in Victor 2, (scanning multiwell spectrophotometer, Wallac).
Medium: RPMI 1640 with cell culture media containing L-Alanyl-L-Glutamine [GlutaMAX™ I (Invitrogen, Cat-Nr. 61870)], 5% FCS (Sigma Cat.-No. F4135), Pen/Strep (Invitrogen, Cat No. 15140). • HCT116 (ATCC-No. CCl-247): 1000 cells in 60 μl per well of 384 well plate (Greiner 781098, μClear-plate white) • After seeding incubate plates 24 h at 37° C., 5% CO2 2nd. Day: Induction (Treatment with Compounds, 10 Concentrations):
In order to achieve a final concentration of 30 μM as highest concentration […] of 10 mM compound stock solution were added directly to 163 μl media. Then step e) of the dilution procedure described below, was followed.

**Q.** For `CCN1C(=O)C(C)(C)c2cc3[nH]c(-c4n[nH]c5ccc(NS(=O)(=O)c6ccccc6)cc45)nc3cc21` [Example 132, N-[3-(5-Ethyl-7,7-dimethyl-6-oxo-1,5,6,7-tetrahydro-imidazo[4,5-f]indol-2-yl)-1H-indazol-5-yl]-benzenesulfonamide], which IC50 is on record?
**A.** Its IC50 is 0.1 to 1 µM.

**Q.** Which IC50 does the source give for `CCN1C(=O)C(C)(C)c2cc3[nH]c(-c4n[nH]c5ccc(NC(=O)Cc6ccccc6C)cc45)nc3cc21` [Example 113, N-[3-(5-Ethyl-7,7-dimethyl-6-oxo-1,5,6,7-tetrahydro-imidazo[4,5-f]indol-2-yl)-1H-indazol-5-yl]-2-o-tolyl-acetamide] here?
**A.** Its IC50 is 0.1 to 1 µM.

**Q.** Which IC50 does the source give for `CC(C)N1C(=O)C(C)(C)c2cc3[nH]c(-c4n[nH]c5ccc(NS(=O)(=O)c6ccccc6S(C)(=O)=O)cc45)nc3cc21` [Example 143, N-[3-(5-Isopropyl-7,7-dimethyl-6-oxo-1,5,6,7-tetrahydro-imidazo[4,5-f]indol-2-yl)-1H-indazol-5-yl]-2-methanesulfonyl-benzenesulfonamide] here?
**A.** Its IC50 is 0.1 to 1 µM.

**Q.** For `CCN1C(=O)C(C)(C)c2cc3[nH]c(-c4n[nH]c5ccc(NS(=O)(=O)c6cccc(Cl)c6)cc45)nc3cc21` [Example 138, 3-Chloro-N-[3-(5-ethyl-7,7-dimethyl-6-oxo-1,5,6,7-tetrahydro-imidazo[4,5-f]indol-2-yl)-1H-indazol-5-yl]-benzenesulfonamide], which IC50 is on record?
**A.** The IC50 was 0.1 to 1 µM.

**Q.** For `CCN1C(=O)C(C)(C)c2cc3[nH]c(-c4n[nH]c5ccc(NC(=O)Cc6ccc(C)cc6)cc45)nc3cc21` [Example 117, N-[3-(5-Ethyl-7,7-dimethyl-6-oxo-1,5,6,7-tetrahydro-imidazo[4,5-f]indol-2-yl)-1H-indazol-5-yl]-2-p-tolyl-acetamide], which IC50 is on record?
**A.** Its IC50 is 0.1 to 1 µM.

**Q.** With `CCN1C(=O)C(C)(C)c2cc3nc(-c4n[nH]c5ccc(C(=O)N6CCSCC6)cc45)[nH]c3cc21` [Example 95, 5-Ethyl-7,7-dimethyl-2-[5-(thiomorpholine-4-carbonyl)-1H-indazol-3-yl]-5,7-dihydro-3H-imidazo[4,5-f]indol-6-one] as the molecule, how does the IC50 read?
**A.** The IC50 was 0.1 to 1 µM.

**Q.** Which IC50 does the source give for `CC1(C)C(=O)N(CC(=O)NCc2ccc(F)cc2)c2cc3[nH]c(-c4n[nH]c5ccccc45)nc3cc21` [Example 46, N-(4-Fluoro-benzyl)-2-[2-(1H-indazol-3-yl)-7,7-dimethyl-6-oxo-6,7-dihydro-3H-imidazo[4,5-f]indol-5-yl]-acetamide] here?
**A.** The IC50 was 0.1 to 1 µM.

**Q.** Which IC50 does the source give for `CC1(C)C(=O)Nc2cc3[nH]c(-c4n[nH]c5cc(C(=O)NCc6ccccc6)ccc45)nc3cc21` [Example 104, 3-(7,7-Dimethyl-6-oxo-3,5,6,7-tetrahydro-imidazo[4,5-f]indol-2-yl)-1H-indazole-6-carboxylic acid benzylamide] here?
**A.** The IC50 was 1 to 10 µM.

**Q.** With `CCN1C(=O)C(C)(C)c2cc3nc(-c4n[nH]c5ccc(C(=O)NCc6cccnc6)cc45)[nH]c3cc21` [Example 81, 3-(5-Ethyl-7,7-dimethyl-6-oxo-3,5,6,7-tetrahydro-imidazo[4,5-f]indol-2-yl)-1H-indazole-5-carboxylic acid (pyridin-3-ylmethyl)-amide; compound with acetic acid] as the molecule, how does the IC50 read?
**A.** The IC50 was 0.1 to 1 µM.

**Q.** Which IC50 does the source give for `CCN1C(=O)C(C)(C)c2cc3[nH]c(-c4n[nH]c5ccc(NC(=O)c6ccccn6)cc45)nc3cc21` [Example 116, Pyridine-2-carboxylic acid [3-(5-ethyl-7,7-dimethyl-6-oxo-1,5,6,7-tetrahydro-imidazo[4,5-f]indol-2-yl)-1H-indazol-5-yl]-amide] here?
**A.** The IC50 was 0.1 to 1 µM.

**Q.** Which IC50 does the source give for `CCN1C(=O)C(C)(C)c2cc3nc(-c4n[nH]c5cc(C(N)=O)ccc45)[nH]c3cc21` [Example 110, 3-(5-Ethyl-7,7-dimethyl-6-oxo-3,5,6,7-tetrahydro-imidazo[4,5-f]indol-2-yl)-1H-indazole-6-carboxylic acid amide] here?
**A.** The IC50 was 1 to 10 µM.

**Q.** With `CCN1C(=O)C(C)(C)c2cc3nc(-c4n[nH]c5cc(Br)ccc45)[nH]c3cc21` [Example 70, 2-(6-Bromo-1H-indazol-3-yl)-5-ethyl-7,7-dimethyl-5,7-dihydro-3H-imidazo[4,5-f]indol-6-one] as the molecule, how does the IC50 read?
**A.** The IC50 was 0.1 to 1 µM.

**Q.** How did the IC50 turn out when `CC1(C)C(=O)N(Cc2nccs2)c2cc3[nH]c(-c4n[nH]c5ccccc45)nc3cc21` [Example 32, 2-(1H-Indazol-3-yl)-7,7-dimethyl-5-thiazol-2-ylmethyl-5,7-dihydro-3H-imidazo[4,5-f]indol-6-one] was run?
**A.** The IC50 was 0.24 µM.

**Q.** For `CN1CCN(C(=O)NCCN2C(=O)C(C)(C)c3cc4nc(-c5n[nH]c6ccccc56)[nH]c4cc32)CC1` [Example 59, 4-Methyl-piperazine-1-carboxylic acid {2-[2-(1H-indazol-3-yl)-7,7-dimethyl-6-oxo-6,7-dihydro-3H-imidazo[4,5-f]indol-5-yl]-ethyl}-amide], which IC50 is on record?
**A.** The IC50 was 1 to 10 µM.

**Q.** `CCN1C(=O)C(C)(C)c2cc3[nH]c(-c4n[nH]c5ccc(NS(=O)(=O)c6ccc(F)cc6)cc45)nc3cc21` [Example 137, N-[3-(5-Ethyl-7,7-dimethyl-6-oxo-1,5,6,7-tetrahydro-imidazo[4,5-f]indol-2-yl)-1H-indazol-5-yl]-4-fluoro-benzenesulfonamide] was tested. Which IC50 did it give?
**A.** The IC50 was 0.1 to 1 µM.

**Q.** How did the IC50 turn out when `CONC(=O)CN1C(=O)C(C)(C)c2cc3nc(-c4n[nH]c5ccccc45)[nH]c3cc21` [Example 51, 2-[2-(1H-Indazol-3-yl)-7,7-dimethyl-6-oxo-6,7-dihydro-3H-imidazo[4,5-f]indol-5-yl]-N-methoxy-acetamide] was run?
**A.** Its IC50 is 0.1 to 1 µM.

**Q.** With `CC1(C)C(=O)N(CCS(C)(=O)=O)c2cc3[nH]c(-c4n[nH]c5ccccc45)nc3cc21` [Example 65, 2-(1H-Indazol-3-yl)-5-(2-methanesulfonyl-ethyl)-7,7-dimethyl-5,7-dihydro-3H-imidazo[4,5-f]indol-6-one] as the molecule, how does the IC50 read?
**A.** The IC50 was 0.1 to 1 µM.

**Q.** Which IC50 does the source give for `CCN1C(=O)C(C)(C)c2cc3nc(-c4n[nH]c5ccc(C(=O)OC)cc45)[nH]c3cc21` [Example 101, 3-(5-Ethyl-7,7-dimethyl-6-oxo-3,5,6,7-tetrahydro-imidazo[4,5-f]indol-2-yl)-1H-indazole-5-carboxylic acid methyl ester] here?
**A.** Its IC50 is 0.1 to 1 µM.

**Q.** For `CC1(C)C(=O)N(CCNS(C)(=O)=O)c2cc3[nH]c(-c4n[nH]c5ccccc45)nc3cc21` [Example 61, N-{2-[2-(1H-Indazol-3-yl)-7,7-dimethyl-6-oxo-6,7-dihydro-3H-imidazo[4,5-f]indol-5-yl]-ethyl}-methanesulfonamide], which IC50 is on record?
**A.** The IC50 was 0.1 to 1 µM.

**Q.** For `CCN1C(=O)C(C)(C)c2cc3nc(-c4n[nH]c5ccc(F)cc45)[nH]c3cc21` [Example 66, 5-Ethyl-2-(5-fluoro-1H-indazol-3-yl)-7,7-dimethyl-5,7-dihydro-3H-imidazo[4,5-f]indol-6-one], which IC50 is on record?
**A.** The IC50 was 0.1 to 1 µM.

**Q.** For `CCN1C(=O)C(C)(C)c2cc3[nH]c(-c4n[nH]c5ccc(NC(=O)OCc6ccccc6)cc45)nc3cc21` [Example 130, [3-(5-Ethyl-7,7-dimethyl-6-oxo-1,5,6,7-tetrahydro-imidazo[4,5-f]indol-2-yl)-1H-indazol-5-yl]-carbamic acid benzyl ester], which IC50 is on record?
**A.** The IC50 was 0.1 to 1 µM.

**Q.** How did the IC50 turn out when `CCN1C(=O)C(C)(C)c2cc3[nH]c(-c4n[nH]c5ccc(NC(=O)N6CCOCC6)cc45)nc3cc21` [Example 128, Morpholine-4-carboxylic acid [3-(5-ethyl-7,7-dimethyl-6-oxo-1,5,6,7-tetrahydro-imidazo[4,5-f]indol-2-yl)-1H-indazol-5-yl]-amide] was run?
**A.** The IC50 was 1 to 10 µM.

**Q.** With `CC1(C)C(=O)Nc2cc3[nH]c(-c4n[nH]c5ccc(C(=O)NCc6ccccc6)cc45)nc3cc21` [Example 77, 3-(7,7-Dimethyl-6-oxo-3,5,6,7-tetrahydro-imidazo[4,5-f]indol-2-yl)-1H-indazole-5-carboxylic acid benzylamide] as the molecule, how does the IC50 read?
**A.** The IC50 was 0.1 to 1 µM.

**Q.** `C[S+]([O-])CCN1C(=O)C(C)(C)c2cc3nc(-c4n[nH]c5ccccc45)[nH]c3cc21` (stereo not shown) [Example 64, 2-(1H-Indazol-3-yl)-5-(2-methanesulfinyl-ethyl)-7,7-dimethyl-5,7-dihydro-3H-imidazo[4,5-f]indol-6-one] was tested. Which IC50 did it give?
**A.** Its IC50 is 1 to 10 µM.

**Q.** How did the IC50 turn out when `CSCCN1C(=O)C(C)(C)c2cc3nc(-c4n[nH]c5ccccc45)[nH]c3cc21` [Example 25, 2-(1H-Indazol-3-yl)-7,7-dimethyl-5-(2-methylsulfanyl-ethyl)-5,7-dihydro-3H-imidazo[4,5-f]indol-6-one] was run?
**A.** The IC50 was 0.1 to 1 µM.
